Experimental data taken from patent publication US8957056B2, “Migrastatin analogs in the treatment of cancer” (Sloan-Kettering Instiute for Cancer Research, priority 2004, dated 2015).
pIC50: −log10 of the molar value.

Key:
[1] = system: mouse breast tumor cells (4T1 cells); test: Boyden chamber cell migration assay, 4T1; assay type: cell-based; details: 4T1 tumor cells, 6-8 hours; read-out: IC50 value, chamber cell migration assay
[2] = Mouse blood plasma stability; details: test period one hour
Method: The biological evaluation of the compounds (in terms of their ability to inhibit cell migration) was accomplished in a Boyden chamber cell migration assay. In this assay, mouse breast tumor cells (4T1 cells) or endothelial cells (HUVECs) are seeded on the upper chamber of a transwell insert. Growth factor-containing serum is added to the lower chamber.
In anticipation of subsequent in vivo evaluation of these compounds and others, preliminary metabolic stability studies were carried out. […] As a test of the ‘deactivation hypothesis’, the hydrolysis product of macrolactone 48 was prepared (Scheme 27) and tested for its activity against tumor cell migration.

[3] = system: human breast cancer cell line MDA MB435; test: Chamber cell migration assay, MDA MB435; assay type: cell-based; details: highly metastatic human breast cancer cell line
Method: Cell migrations were assayed with 8 μm of microporous 6.5-mm transwell plates (Corning). 200 μl of 2×10^5 cells in serum-free RPMI1640 medium containing 0.5% BSA were added to the upper chamber and 600 μl of medium with 10% fetal bovine serum was added to the lower chamber. […] Cells migrated to the lower wells were collected and counted for liquid tumors, solid tumors were processed as previously described.^28 Data shown are representative of at least three experiments.

[4] = system: human colon cancer cell line HT 29; test: Wound healing (scratch) assay, HT 29; assay type: cell-based; parameters: key: successful (+); unsuccessful (−) inhibition of cell migration; details: 10X IC50: 48 (240 nM), 55 (1000 nM), 60 (2550 nM); 24 and 48 h
Method: (§1) The human ovarian cancer cell lines Ovcar3 and IGROV were grown in M5 media. The colon cell lines HT 29 and HCT 116 were cultivated in DMEM containing 10% FCS in a humidified environment at 37° C. Myeloma cell lines CAG (obtained from The Myeloma Institute for Research and Therapy, University of Arkansas) and RPMI8226 as well as lymphoma cell line RL were maintained at RPMI1640 medium containing 10% FCS. All cell lines were acquired from the ATCC if not otherwise stated.
(§2) The tumor cells were seeded into 24-multiwell plates (Becton-Dickinson) and cultivated until the cells formed a confluent monolayer. Wounds were set by horizontally scratching the monolayer with a sterile pipette tip. The cells were thereafter washed twice with Phosphate Buffered Saline (PBS) to remove detached cells. Growth media was then added containing different concentrations of the chemical compound and incubated at 37° C. […] The cells were photographed at the beginning of the experiment and after 24 and 48 h to assess the progression of cell migration into the wound.

colon cell line HCT 116 = test: Wound healing (scratch) assay, HCT 116; assay type: cell-based, human; parameters: key: successful (+); unsuccessful (−) inhibition of cell migration; details: 10X IC50: 48 (240 nM), 55 (1000 nM), 60 (2550 nM); 24 and 48 h
Method: as §1, §2

[5] = system: human ovarian cancer cell line IGROV; test: Wound healing (scratch) assay, IGROV; assay type: cell-based; parameters: key: successful (+); unsuccessful (−) inhibition of cell migration; details: 10X IC50: 48 (240 nM), 55 (1000 nM), 60 (2550 nM); 24 and 48 h
Method: as §1, §2

[6] = system: human ovarian cancer cell line Ovcar3; test: Wound healing (scratch) assay, Ovcar3; assay type: cell-based; parameters: key: successful (+); unsuccessful (−) inhibition of cell migration; details: 10X IC50: 48 (240 nM), 55 (1000 nM), 60 (2550 nM); 24 and 48 h
Method: as §1, §2

[7] = system: human breast cancer cell line MDA MB435; test: Wound healing (scratch) assay, MDA MB435; assay type: cell-based; parameters: key: successful (+); unsuccessful (−) inhibition of cell migration; details: 10X IC50: 48 (240 nM), 55 (1000 nM), 60 (2550 nM); 24 and 48 h
Method: as §2

CAG cells = test: CAG cell proliferation assay (XTT); assay type: cell-based, human; details: printed in the legend on CAG cell proliferation; read-out: IC50 (legend of FIG. 3)
Method: In the last 20 hours, sodium 3′-[1-(phenylamino-carbonyl)-3,4-tetrazolium]-bis(4-methoxy-6-nitro) benzene sulfonic acid hydrate (XTT) was added and optical absorbance at 490 nm were measured. As reference wavelength 650 nm was used. […] The result was expressed as percentage of the control.

SKOV = test: Cell proliferation and viability assay (XTT), SKOV; assay type: cell-based, human; details: 72 h in total, no morphological sign of apoptosis or cell death
Method: (§3) Cell proliferation and viability measurement were assessed by a colorimetric assay using sodium 39-(phenylaminocarbonyl)-3,4-tetrazolium-bis(4-methoxy-6-nitro) benzene sulfonic acid hydrate (XTT, Sigma, St. Louis, Mo.), and phenazine methosulphate (PMS, Sigma, St. Louis, Mo.). Cells from indicated lines were plated at 5˜10×10×10^3/well in 96 well plates in the presence of different concentration of compounds for 52 hrs. Then 50 μL of XTT/PMS mixture was added to each well and incubated for an additional 20 hrs at 37° C. Plate absorbance was measured directly at optical density of 490 nm (reference wavelength at 650 nm) in an ELISA reader (Thermo Max Microplate Reader, Molecular Devices, CA). The data was expressed as the mean of readings obtained in wells with treatment with subtraction of the reading with vehicle control. The total metabolic activity, which correspond to the number of living cells directly correlate to the amount of orange formazan formed in a cell. The result is expressed as percentage of the control.

HT29 = test: Cell proliferation and viability assay (XTT), HT29; assay type: cell-based, human; details: 72 h in total, no morphological sign of apoptosis or cell death
Method: as §3

IGROV = test: Cell proliferation and viability assay (XTT), IGROV; assay type: cell-based, human; details: 72 h in total, no morphological sign of apoptosis or cell death
Method: as §3

HCT116 = test: Cell proliferation and viability assay (XTT), HCT116; assay type: cell-based, human; details: 72 h in total
Method: as §3

Ovcar3 = test: Cell proliferation and viability assay (XTT), Ovcar3; assay type: cell-based, human; details: 72 h in total
Method: as §3

Ovcar4 = test: Cell proliferation and viability assay (XTT), Ovcar4; assay type: cell-based, human; details: 72 h in total
Method: as §3

[8] = system: human ovarian tumor cell line OVCAR3; test: In vivo metastatic ovarian xenograph model (OVCAR3 HSV-TK/eGFP/FLuc); parameters: species or system mouse
From the text: The human ovarian tumor cell line OVCAR3 was transduced with a triple fusion gene HSV-TK/eGFP/FLuc, expressing thymidine kinase, enhanced green fluorescence protein and firefly luciferase. Whole animal imaging by luciferase bioluminescence (FIGS. 7A & B), allowed identification and quantification of disseminated tumor. We quantified the tumor burden in each organ, by sacrificing the mouse shortly after luciferin injecting and imaging of the dissected organs (lung, liver and spleen) (FIG. 8). In all instances tumor engraftment was initiated with 1-5×10^7 cells and the recipients received 3 Gy irradiation 10 days before tumor engraftment. These tumor cells generated bulky omental metastases with diffuse microscopic peritoneal carcinomatosis causing ascites (FIG. 9), significant pleural effusion with diffuse macroscopic peritoneal carcinomatosis and liver, lung and paraaortic metastases.
Treatment was initiated once primary tumor was well established. Animals were imaged at weekly intervals to monitor tumor growth and location of metastases (imaging sensitivity 200-500 cells).

[9] = system: human colon cancer cells (HT29); test: Microarray analysis of treated HT29 cells; assay type: cell-based; details: 500 nM, 6 h and 18 h
Method: (§4) For the microarray comparison (Affymetrix chip -AU133 plus) human ovarian cancer cells (Ovcar3) and human colon cancer cells (HT29) were treated with 500 nM DMC (48) for 6 h and 18 h or left untreated. A large panel of up and down regulated genes were detected including a broad array of motility, cell shape and chemotaxis genes (FIG. 17).

[10] = system: human ovarian cancer cells Ovcar3; test: Immunofluorescence staining of treated Ovcar3 cells; assay type: cell-based; details: 500 nM
Method: as §4
Ovcar3 cells in exponential growth phase were seeded into 24 well plates at 2×10^4/ml in the presence of 500 nM of DMC (48). […] At the time of staining, cells were pre-blocked at room temperature in PBS with 3% BSA and 0.2% Na-azide. After washing, the cells were then incubated with indicated monoclonal antibody (FIG. 18), diluted 1:200 in 1.5% blocking serum, at 37° C. Cells were washed again and incubated with anti-mouse-Alexa red secondary antibody in the dark at 37° C. Cells were then counter-stained with 4,6-diamidino-2-phenylindole (DAPI) at 0.2 μg/ml PBS.

[11] = 40 mg/kg three times a week for 10 treatments
[12] = daily injection of 40 mg/kg i.p.

Compound: CO[C@H]1/C=C/CCCCC(=O)OC/C(C)=C\[C@@H](C)[C@@H]1O [Compound 48, Macrolactone]
- pIC50 [1]: 7.62
- metabolic stability in mouse blood plasma [2]: hydrolyzed rapidly
- response of MDA MB435 to the compound [3]: responded only slightly
- inhibition of cell migration, wound healing assay, HT 29 [4]: +
- inhibition of cell migration, wound healing assay, HCT 116 (colon cell line HCT 116): +
- inhibition of cell migration, wound healing assay, IGROV [5]: +
- inhibition of cell migration, wound healing assay, Ovcar3 [6]: +
- inhibition of cell migration, wound healing assay, MDA MB435 [7]: +
- pIC50 (CAG cells): 7.62
- effect on proliferation, SKOV (SKOV): inhibition of proliferation
- effect on proliferation, HT29 (HT29): inhibition of proliferation
- effect on proliferation, IGROV (IGROV): inhibition of proliferation
- effect on proliferation, HCT116 (HCT116): uninfluenced
- effect on proliferation, Ovcar3 (Ovcar3): uninfluenced
- effect on proliferation, Ovcar4 (Ovcar4): uninfluenced
- reduction of metastasis for liver [8, 11]: 80%
- reduction of metastasis in lung and spleen [8, 11]: highly significant reduction
- treated mice that had ascitis ([8]; FIG. 9, 4 out of 4 control mice had ascitis): 1 out of 4
- survival [8, 12]: increase of survival
- total tumor mass [8, 12]: reduction of the total tumor mass
- mice with inhibition of ascitis at the endpoint ([8]; daily injection of 40 mg/kg i.p., all control mice developed ascites): 3 out of 4
- E-cadherin expression, micro array [9]: upregulation
- Integrin α2 and CD44, immunofluorescent microscopy [10]: Upregulated
- β-tubulin, immunofluorescent microscopy ([10]; after 6 h or 24 h): did not show any modulations
